#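 Compound exposure: 48 hours, 5 concentrations, 96-well plates. GI50 = concentration required for 50% inhibition of growth.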 Active and inactive are the calls of the source. No stated cut-off is given here; in the data, active = GI50 up to about 1.1 µM and inactive = higher.
# Tests used:
# Experiment in all cases: NCI tumour cell line growth inhibition, 48 h
# K562 = system: K562
# MDA-MB-435 = system: MDA-MB-435
# SK-MEL-2 = system: SK-MEL-2
# ACHN = system: ACHN
# NCI-H460 = system: NCI-H460
# Hs-578T = system: Hs-578T
# A498 = system: A498
# EKVX = system: EKVX
# M14 = system: M14
# Malme-3M = system: Malme-3M
# MDA-MB-231 = system: MDA-MB-231
# 786-0 = system: 786-0
# TK-10 = system: TK-10
# OVCAR-5 = system: OVCAR-5
# U-251 = system: U-251
# OVCAR-8 = system: OVCAR-8
# NCI-H226 = system: NCI-H226
# HCT-15 = system: HCT-15
# HL-60 = system: HL-60
# A549 = system: A549
# UACC-62 = system: UACC-62
# SF-268 = system: SF-268
# PC-3 = system: PC-3
# HCT-116 = system: HCT-116
# UACC-257 = system: UACC-257
# NCI/ADR-RES = system: NCI/ADR-RES
# SK-MEL-28 = system: SK-MEL-28
# NCI-H522 = system: NCI-H522
# SR = system: SR
# OVCAR-4 = system: OVCAR-4
# SF-539 = system: SF-539
# KM12 = system: KM12
# HOP-62 = system: HOP-62
# SK-OV-3 = system: SK-OV-3
# COLO 205 = system: COLO 205
# BT-549 = system: BT-549
# OVCAR-3 = system: OVCAR-3
# CCRF-CEM = system: CCRF-CEM
# HT-29 = system: HT-29
# HOP-92 = system: HOP-92
# RXF 393 = system: RXF 393
# MCF7 = system: MCF7
# UO-31 = system: UO-31
# HCC 2998 = system: HCC 2998
# NCI-H23 = system: NCI-H23
# SW-620 = system: SW-620
# RPMI-8226 = system: RPMI-8226
# CAKI-1 = system: CAKI-1
# SNB-19 = system: SNB-19
# IGROV-1 = system: IGROV-1
# SNB-75 = system: SNB-75
# SF-295 = system: SF-295
# SK-MEL-5 = system: SK-MEL-5
# MOLT-4 = system: MOLT-4
# SN12C = system: SN12C
# DU-145 = system: DU-145
# T47D = system: T47D
# LOX IMVI = system: LOX IMVI
structure (smiles),measurement,setting,value
CCCCCCCCCCCCCCCCCc1cccc(OCOCCOC)c1CO,GI50,K562,> 100 µM (inactive)
same,GI50,MDA-MB-435,> 100 µM (inactive)
same,GI50,SK-MEL-2,> 100 µM (inactive)
same,GI50,ACHN,> 100 µM (inactive)
same,GI50,NCI-H460,> 100 µM (inactive)
same,GI50,Hs-578T,> 100 µM (inactive)
same,GI50,A498,> 100 µM (inactive)
same,GI50,EKVX,> 100 µM (inactive)
same,GI50,M14,> 100 µM (inactive)
same,GI50,Malme-3M,> 100 µM (inactive)
same,GI50,MDA-MB-231,> 100 µM (inactive)
same,GI50,786-0,> 100 µM (inactive)
same,GI50,TK-10,> 100 µM (inactive)
same,GI50,OVCAR-5,> 100 µM (inactive)
same,GI50,U-251,> 100 µM (inactive)
same,GI50,OVCAR-8,> 100 µM (inactive)
same,GI50,NCI-H226,> 100 µM (inactive)
same,GI50,HCT-15,> 100 µM
same,GI50,HL-60,> 100 µM (inactive)
same,GI50,A549,> 100 µM (inactive)
same,GI50,UACC-62,> 100 µM (inactive)
same,GI50,SF-268,> 100 µM (inactive)
same,GI50,PC-3,> 100 µM (inactive)
same,GI50,HCT-116,> 100 µM (inactive)
same,GI50,UACC-257,> 100 µM (inactive)
same,GI50,NCI/ADR-RES,> 100 µM (inactive)
same,GI50,SK-MEL-28,> 100 µM (inactive)
same,GI50,NCI-H522,> 100 µM (inactive)
same,GI50,SR,> 100 µM (inactive)
same,GI50,OVCAR-4,> 100 µM (inactive)
same,GI50,SF-539,> 100 µM (inactive)
same,GI50,KM12,> 100 µM (inactive)
same,GI50,HOP-62,> 100 µM (inactive)
same,GI50,SK-OV-3,> 100 µM (inactive)
same,GI50,COLO 205,> 100 µM (inactive)
same,GI50,BT-549,> 100 µM (inactive)
same,GI50,OVCAR-3,> 100 µM (inactive)
same,GI50,CCRF-CEM,> 100 µM (inactive)
same,GI50,HT-29,> 100 µM (inactive)
same,GI50,HOP-92,> 100 µM (inactive)
same,GI50,RXF 393,> 100 µM (inactive)
same,GI50,MCF7,> 100 µM (inactive)
same,GI50,UO-31,> 100 µM (inactive)
same,GI50,HCC 2998,> 100 µM (inactive)
same,GI50,NCI-H23,> 100 µM (inactive)
same,GI50,SW-620,> 100 µM (inactive)
same,GI50,RPMI-8226,> 100 µM (inactive)
same,GI50,CAKI-1,> 100 µM (inactive)
same,GI50,SNB-19,> 100 µM (inactive)
same,GI50,IGROV-1,> 100 µM (inactive)
same,GI50,SNB-75,> 100 µM (inactive)
same,GI50,SF-295,> 100 µM (inactive)
same,GI50,SK-MEL-5,> 100 µM (inactive)
same,GI50,MOLT-4,> 100 µM (inactive)
CC(C)CC1c2[nH]c3ccccc3c2C[C@H]2C(=O)NC(Cc3c[nH]c4ccccc34)C(=O)N12 (stereo partly specified),GI50,K562,11.5 µM (inactive)
same,GI50,MDA-MB-435,16 µM (inactive)
same,GI50,SK-MEL-2,16 µM (inactive)
same,GI50,ACHN,17.8 µM (inactive)
same,GI50,SN12C,15.9 µM (inactive)
same,GI50,Hs-578T,7.11 µM (inactive)
same,GI50,A498,16.8 µM (inactive)
same,GI50,EKVX,16 µM (inactive)
same,GI50,M14,14.1 µM (inactive)
same,GI50,Malme-3M,14.6 µM (inactive)
same,GI50,MDA-MB-231,20.3 µM (inactive)
same,GI50,786-0,17.5 µM (inactive)
same,GI50,TK-10,4.93 µM (inactive)
same,GI50,OVCAR-5,24.7 µM (inactive)
same,GI50,U-251,12.2 µM (inactive)
same,GI50,OVCAR-8,15.9 µM (inactive)
same,GI50,NCI-H226,26.9 µM (inactive)
same,GI50,HCT-15,14.6 µM
same,GI50,HL-60,11.8 µM (inactive)
same,GI50,A549,12.5 µM (inactive)
same,GI50,UACC-62,16 µM (inactive)
same,GI50,SF-268,18 µM (inactive)
same,GI50,PC-3,11.1 µM (inactive)
same,GI50,HCT-116,11.2 µM (inactive)
same,GI50,UACC-257,14.3 µM (inactive)
same,GI50,NCI/ADR-RES,18 µM (inactive)
same,GI50,SK-MEL-28,17.3 µM (inactive)
same,GI50,NCI-H522,11.5 µM (inactive)
same,GI50,SR,14 µM (inactive)
same,GI50,OVCAR-4,15.8 µM (inactive)
same,GI50,KM12,13.4 µM (inactive)
same,GI50,HOP-62,20.6 µM (inactive)
same,GI50,DU-145,20.3 µM (inactive)
same,GI50,SK-OV-3,16.5 µM (inactive)
same,GI50,COLO 205,17.8 µM (inactive)
same,GI50,BT-549,16.9 µM (inactive)
same,GI50,OVCAR-3,7.74 µM (inactive)
same,GI50,HT-29,14.9 µM (inactive)
same,GI50,HOP-92,13.7 µM (inactive)
same,GI50,RXF 393,7.87 µM (inactive)
same,GI50,MCF7,14.8 µM (inactive)
same,GI50,T47D,6.61 µM (inactive)
same,GI50,UO-31,14.3 µM (inactive)
same,GI50,NCI-H23,17.7 µM (inactive)
same,GI50,SW-620,18.1 µM (inactive)
same,GI50,RPMI-8226,13.9 µM (inactive)
same,GI50,CAKI-1,23.7 µM (inactive)
same,GI50,SNB-19,16.8 µM (inactive)
same,GI50,IGROV-1,15.5 µM (inactive)
same,GI50,LOX IMVI,14.2 µM (inactive)
same,GI50,SF-295,20.4 µM (inactive)
same,GI50,SK-MEL-5,12.7 µM (inactive)
same,GI50,MOLT-4,13.2 µM (inactive)
CCC/C(C)=N/NC(=S)SC.CCC/C(C)=N/NC(=S)SC.[Zn+2],GI50,K562,16.6 µM (inactive)
same,GI50,MDA-MB-435,11.4 µM (inactive)
same,GI50,SK-MEL-2,13.9 µM (inactive)
same,GI50,ACHN,9.08 µM (inactive)
same,GI50,SN12C,2.94 µM (inactive)
same,GI50,NCI-H460,16 µM (inactive)
same,GI50,Hs-578T,15.7 µM (inactive)
same,GI50,A498,22.2 µM (inactive)
same,GI50,EKVX,15 µM (inactive)
same,GI50,M14,11.1 µM (inactive)
same,GI50,Malme-3M,2.9 µM (inactive)
same,GI50,MDA-MB-231,1.7 µM (inactive)
same,GI50,786-0,10.9 µM (inactive)
same,GI50,TK-10,11.6 µM (inactive)
same,GI50,OVCAR-5,10.3 µM (inactive)
same,GI50,U-251,1.84 µM (inactive)
same,GI50,OVCAR-8,1.89 µM (inactive)
same,GI50,NCI-H226,12.6 µM (inactive)
same,GI50,HCT-15,2.24 µM
same,GI50,A549,12.6 µM (inactive)
same,GI50,UACC-62,10.9 µM (inactive)
same,GI50,SF-268,14.1 µM (inactive)
same,GI50,PC-3,12.4 µM (inactive)
same,GI50,HCT-116,10.4 µM (inactive)
same,GI50,UACC-257,7.46 µM (inactive)
same,GI50,NCI/ADR-RES,16.7 µM (inactive)
same,GI50,SK-MEL-28,16 µM (inactive)
same,GI50,NCI-H522,11.3 µM (inactive)
same,GI50,OVCAR-4,14.1 µM (inactive)
same,GI50,SF-539,13.7 µM (inactive)
same,GI50,KM12,11.5 µM (inactive)
same,GI50,HOP-62,9.75 µM (inactive)
same,GI50,DU-145,12 µM (inactive)
same,GI50,SK-OV-3,16.2 µM (inactive)
same,GI50,COLO 205,14.2 µM (inactive)
same,GI50,BT-549,10.6 µM (inactive)
same,GI50,OVCAR-3,10.2 µM (inactive)
same,GI50,CCRF-CEM,2.16 µM (inactive)
same,GI50,HT-29,3.07 µM (inactive)
same,GI50,RXF 393,17.1 µM (inactive)
same,GI50,MCF7,7.24 µM (inactive)
same,GI50,T47D,11.5 µM (inactive)
same,GI50,UO-31,11 µM (inactive)
same,GI50,NCI-H23,13.7 µM (inactive)
same,GI50,SW-620,9.44 µM (inactive)
same,GI50,RPMI-8226,1.98 µM (inactive)
same,GI50,CAKI-1,13.7 µM (inactive)
same,GI50,SNB-19,16.2 µM (inactive)
same,GI50,IGROV-1,2.56 µM (inactive)
same,GI50,SNB-75,18.7 µM (inactive)
same,GI50,LOX IMVI,1.48 µM (inactive)
same,GI50,SF-295,3.15 µM (inactive)
same,GI50,SK-MEL-5,11.2 µM (inactive)
same,GI50,MOLT-4,1.47 µM (inactive)

# From ChEMBL document CHEMBL1201862, “PubChem BioAssay data set” (2004)
